Measured values: patent US20070021351A1, “Liver/plasma concentration ratio for dosing hepatitis C virus protease inhibitor” (Schering Corporation, priority 2005, published 2007)

Experiment: Example 2: food-effect crossover study, 600 mg single dose, healthy adult subjects
Type: in vivo, human
Method: This was a randomized, open-label, single-dose, two-treatment (fed or fasted), two-period, two-sequence crossover study of the effect of food on the bioavailability of compound of Formula Ia in 23 healthy adult male and female subjects. The primary pharmacokinetic parameters were AUC(I) and Cmax for compound of Formula Ia. The study included a 7-day wash-out period between treatment periods.
Subjects were confined at the study site at least 14 hours prior to each treatment (Day-1). On the morning of Day 1, following a 10-hour overnight fast, subjects were randomized to receive in a particular order Treatment A and Treatment B: • Treatment A: compound of Formula Ia 600 mg (6×100 mg capsules) PO following an overnight fast. • Treatment B: compound of Formula Ia 600 mg (6×100 mg capsules) PO within 20 minutes following the completion of a standard high-fat breakfast. There was a 7-day wash-out period between receiving treatments.
Subjects receiving Treatment A received a formulation of compound of Formula Ia comprised of compound of Formula Ia and a pharmaceutically acceptable carrier, such as microcrystalline cellulose, while continuing to fast, while subjects randomized to Treatment B consumed a standardized high-fat meal prior to compound administration (within 20 minutes prior to the compound administration). The capsules along with approximately 240 mL of water were swallowed whole, not chewed or crushed. […] Water was permitted as desired except for 1 hour before and after compound administration. A washout period of at least 7 days separated the two treatment periods. Upon return to the clinic, subjects underwent the same procedures as the first period and continued the randomization sequence (subjects who received compound of Formula Ia fasted in Period 1 and then received compound of Formula Ia under fed conditions in Period 2, and vice versa).
Blood samples (7 mL each) for the determination of compound of Formula Ia levels were drawn immediately prior to dosing (0 hour), and at 0.5, 1, 1.5, 2, 2.5, 3, 4, 5, 6, 8, 12, 24, 36, and 48 hours after dosing. The blood samples were collected into tubes containing EDTA. The samples were centrifuged at 1500 g for 10 minutes to obtain plasma and the plasma samples were frozen at −20° C. and maintained in the frozen state until assayed.
Plasma concentrations of compound of Formula Ia were determined using a validated liquid chromatography tandem mass spectrometry (LC-MS/MS) method. The assay lower limit of quantitation (LLOQ) was 0.50 ng/mL and the method was validated over the concentration range of 0.50 to 1000 ng/mL.
The mean and percent coefficient of variation (% CV) were calculated for plasma concentrations of compound of Formula Ia at each time point. Concentration values less than the assay LLOQ were reported as, and set to zero in the tables and calculations. The plasma concentration-time data for compound of Formula Ia were subjected to pharmacokinetic analysis by noncompartmental methods using WinNonlin software. Nominal sampling times were used for pharmacokinetic analysis, since none of the pharmacokinetic sampling time deviations were >10% of the nominal times. For each subject, the following pharmacokinetic parameters were determined for compound of Formula Ia: maximum plasma concentration (Cmax), time of maximum observed plasma concentration (Tmax), the final quantifiable sampling time (tf), area under the plasma concentration-time curve from time 0 to tf (AUC[tf]), AUC(I) (AUC[tf]+C[tf]estimated/K) and Vd/F. The K and C(tf)estimated are defined as terminal elimination rate constant and estimated concentration at final quantifiable sample, respectively. Terminal phase half-life (t½=In2/K) and apparent clearance (CL/F=Dose/AUC[I]) were also determined. Cmax, Tmax and tf were the observed values. […]

CC(C)(C)NC(=O)N[C@H](C(=O)N1C[C@H]2[C@@H]([C@H]1C(=O)NC(CC1CCC1)C(=O)C(N)=O)C2(C)C)C(C)(C)C (mixture of isomers) [Formula Ia, (1R,5S)-N-[3-Amino-1-(Cyclobutylmethyl)-2,3-Dioxopropyl]-3-[2(S)-[[[(1,1-Dimethylethyl)Amino]Carbonyl]Amino]-3,3-Dimethyl-1-Oxobutyl]-6,6-Dimethyl-3-Azabicyclo[3.1.0]Hexan-2(S)-Carboxamide]
apparent mean Vd/F, fed versus fasted (times lower) (600 mg oral): about five
safety profile (600 mg oral dose, fed and fasted states): low frequency of treatment emergent and treatment related AEs
delay of median Tmax, fed versus fasted (600 mg single oral dose): approximately three
median concentration at 8 hours, fed relative to fasted (600 mg single oral dose): more than 4 fold
median concentration at 12 hours, fed relative to fasted (600 mg single oral dose): 2 fold
AUC(I) (600 mg single oral dose, fed, mean, n=19): 3697 ng·h/mL
AUC(l) ratio estimate, fed to fasted (600 mg, female, n=10): 225%
AUC(tf) ratio estimate, fed to fasted (600 mg, female, n=10): 229%
Cmax ratio estimate, fed to fasted (600 mg, female, n=10): 170%
increase of relative (oral) bioavailability (AUC) in the fed state (600 mg, high-fat meal relative to fasted): over 100%
AUC(l) ratio estimate, fed to fasted (600 mg, male, n=10): 202%
AUC(tf) ratio estimate, fed to fasted (600 mg, male, n=10): 205%
Cmax ratio estimate, fed to fasted (600 mg, male, n=10): 155%
AUC(l) ratio estimate, fed to fasted (600 mg, n=20): 214%
AUC(tf) ratio estimate, fed to fasted (600 mg, n=20): 217%
Cmax ratio estimate, fed to fasted (600 mg, n=20): 162%
absorption lag time in the fed state vs the fasted state (in 12 of the 20 subjects who completed both periods): > 0.5 h
